Data as given in US20260167622A1, “PAN-KRAS DEGRADING AGENT, AND PREPARATION METHOD THEREFOR AND USE THEREOF” (LEADINGTAC PHARMACEUTICAL (SHAOXING) CO., LTD., priority 2022, published 2026).

Experiments:
Human KRAS G12V = molecular target: T1, Human KRAS G12V (Homo sapiens, UniProt P01116, G12V); assay: KRAS-G12V/GTP binding assay (HTRF kit); settings: 25° C., 1 h
T1 construct: purchased PerkinElmer
Description: Test Example 2: KRAS G12V Binding Assay
In this method, the inhibitory effects of the compounds on the binding of KRAS G12V to GTP were assayed by a homogeneous time-resolved fluorescence (HTRF) technique using a KRAS-G12V/GTP binding assay kit (PerkinElmer).
The experimental procedures were as follows (refer to the kit instructions for detailed test methods): the compounds of the present disclosure were each firstly dissolved in DMSO at a concentration of 20 mM, and then diluted in an equal gradient with a buffer in the kit, so that the final concentrations of the test compounds in the reaction system were in a range of 0.02-5000 nM, and the final concentration of DMSO was 0.5%. 5 μL of each compound was incubated with 5 μL of 1× Human KRAS G12V 6His-tagged (PerkinElmer), 5 µL of 1×6His Eu Cryptate Antibody (PerkinElmer), and 5 μL of 1×GTP Red reagent (PerkinElmer) in a 384-well plate (Greiner) at 25° C. for 1 h. After the incubation was completed, the fluorescence intensity of each well was measured at the excitation wavelength of 337 nm and the emission wavelengths of 620 nm and 665 nm with an EnVision microplate reader (PerkinElmer) in the HTRF mode, and Ratio values were calculated using the formula: Ratio=(665 nm/620 nm)×10^4. The inhibition rates of the compounds at each concentration were calculated by comparing the fluorescence intensity ratio with that of the control group. Then non-linear curve fittings for logarithmic concentration-inhibition rate were performed using the GraphPad Prism 8 analysis software, and the IC50 values of the compounds were obtained (Table 3).

[1] = molecular target: T2, KRAS G12V protein in SW900 cells (Homo sapiens, UniProt P01116, G12V); assay: KRAS degradation assay (Western Blot) in SW900 cells; type: cell-based; settings: 24 h
T2 construct: endogenous in cells; host or cells: SW900
How it was run: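 Cells seeded at 5×10^5 cells/well, incubated overnight, then treated 24 h at 37 °C with compound (final 0.03–3000 nM, 0.25% DMSO). KRAS in lysates measured by Western blot with β-actin normalisation; degradation versus vehicle control fitted to give DC50 and Dmax.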

KRAS-G12D mutant cells = settings: background, J. Med. Chem. 2022, 65, 3923-3942; cited from earlier work
[2] = test system: KRAS G12V mutant human colorectal cancer cell SW620; assay: 3D cell proliferation inhibition assay, SW620; type: cell-based; settings: SW-620, 168 h, 3D culture, 7 days, CTG
How it was run: (§1)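 Cells were seeded in low-adsorption 96-well plates at 5×10^2 cells/well (MKN1 at 1×10^3) with compounds at final 10000-0.026 nM, 0.2% DMSO, and grown 7 days at 37° C. CTG luminescence gave inhibition relative to DMSO and medium-only controls, and IC50 came from a log-concentration curve fit.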

[3] = test system: KRAS G12D mutant human metastatic pancreatic cancer cell AsPc-1; assay: 3D cell proliferation inhibition assay, AsPc-1; type: cell-based; settings: ASPC1, 168 h, 3D culture, 7 days, CTG
How it was run: as §1

[4] = test system: KRAS WT human gastric cancer cell MKN1; assay: 3D cell proliferation inhibition assay, MKN1; type: cell-based; settings: MKN-1, 168 h, 3D culture, 7 days, CTG
How it was run: as §1

[5] = test system: KRAS G12V mutant human lung squamous carcinoma cell SW900; assay: 3D cell proliferation inhibition assay, SW900; type: cell-based; settings: SW900, 168 h, 3D culture, 7 days, CTG

T1 sequence (P01116 1-188 isoform P01116-2 G12V): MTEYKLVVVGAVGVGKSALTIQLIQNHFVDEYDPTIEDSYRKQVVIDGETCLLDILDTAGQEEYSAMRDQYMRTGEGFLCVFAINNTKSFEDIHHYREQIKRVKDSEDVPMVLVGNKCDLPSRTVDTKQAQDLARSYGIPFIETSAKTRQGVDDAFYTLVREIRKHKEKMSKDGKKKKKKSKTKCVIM
T2 sequence (P01116 1-188 isoform P01116-2 G12V): as above

IC50 (Human KRAS G12V) | DC50 [1] | Dmax [1] | SMILES | also measured
≤ 500 nM | ≤ 50 nM | 50 to 80% | C#Cc1c(F)ccc2cc(O)cc(-c3ncc4c(N5CCC[C@@](C)(O)C5)nc(OCC56CC(CN7CCN(CC8CCC9(CC8)CCN(C(=O)c8ccc(C)c(N%10CCC(=O)NC%10=O)c8)CC9)CC7)(C5)C6)nc4c3F)c12 [Example 14, (R)-1-(5-(9-((4-((3-(((7-(8-ethynyl-7-fluoro-3-hydroxynaphthalen-1-yl)-8-fluoro-4-(3-hydroxy-3-methylpiperidin-1-yl)pyrido[4,3-d]pyrimidin-2-yl)oxy)methyl)bicyclo[1.1.1]pent-1-yl)methyl)piperazin-1-yl)methyl)-3-azaspiro[5.5]undecane-3-carbonyl)-2-methylphenyl)dihydropyrimidine-2,4(1H,3H)-dione] | –
≤ 500 nM | – | – | C#Cc1c(F)ccc2cc(O)cc(-c3ncc4c(N5CCC[C@@](C)(O)C5)nc(OCC5(CN6CCC7(CC6)CCN(C(=O)c6ccc(Cl)c(N8CCC(=O)NC8=O)c6)CC7)CC5)nc4c3F)c12 [Example 16, (R)-1-(2-chloro-5-(9-((1-(((7-(8-ethynyl-7-fluoro-3-hydroxynaphthalen-1-yl)-8-fluoro-4-(3-hydroxy-3-methylpiperidin-1-yl)pyrido[4,3-d]pyrimidin-2-yl)oxy)methyl)cyclopropyl)methyl)-3,9-diazaspiro[5.5]undecane-3-carbonyl)phenyl)dihydropyrimidine-2,4(1H,3H)-dione] | –
≤ 500 nM | – | – | C#Cc1c(F)ccc2cc(O)cc(-c3ncc4c(N5CCC[C@@](C)(O)C5)nc(OCC5(CN6CCN(C(=O)c7ccc(Cl)c(N8CCC(=O)NC8=O)c7)CC6)CC5)nc4c3F)c12 [Example 15, (R)-1-(2-chloro-5-(4-((1-(((7-(8-ethynyl-7-fluoro-3-hydroxynaphthalen-1-yl)-8-fluoro-4-(3-hydroxy-3-methylpiperidin-1-yl)pyrido[4,3-d]pyrimidin-2-yl)oxy)methyl)cyclopropyl)methyl)piperazine-1-carbonyl)phenyl)dihydropyrimidine-2,4(1H,3H)-dione] | –

More lines, now with the values behind:

SMILES | IC50 (Human KRAS G12V) | DC50 [1] | Dmax [1] | also measured
C#Cc1c(F)ccc2cc(O)cc(-c3ncc4c(N(C)C5CC5)nc(OCC5(CN6CCN(CC7CCC8(CC7)CCN(C(=O)c7ccc(OC)c(N9CCC(=O)NC9=O)c7)CC8)CC6)CC5)nc4c3F)c12 [Example 30, 1-(5-(9-((4-((1-(((4-(cyclopropyl(methyl)amino)-7-(8-ethynyl-7-fluoro-3-hydroxynaphthalen-1-yl)-8-fluoropyrido[4,3-d]pyrimidin-2-yl)oxy)methyl)cyclopropyl)methyl)piperazin-1-yl)methyl)-3-azaspiroundecane-3-carbonyl)-2-methoxyphenyl)dihydropyrimidine-2,4(1H,3H)-dione] | 500 to 1000 nM | ≤ 50 nM | 50 to 80% | –
Cc1ccc(C(=O)N2CCC3(CCC(CN4CCN(CC5(COc6nc(N7CCC[C@@](C)(O)C7)c7cnc(-c8cc(O)cc(Cl)c8C8CC8)c(F)c7n6)CC5)CC4)CC3)CC2)cc1N1CCC(=O)NC1=O [Example 40, (R)-1-(5-(9-((4-((1-(((7-(3-chloro-2-cyclopropyl-5-hydroxyphenyl)-8-fluoro-4-(3-hydroxy-3-methylpiperidin-1-yl)pyrido[4,3-d]pyrimidin-2-yl)oxy)methyl)cyclopropyl)methyl)piperazin-1-yl)methyl)-3-azaspiro[5.5]undecane-3-carbonyl)-2-methylphenyl)dihydropyrimidine-2,4(1H,3H)-dione] | 500 to 1000 nM | ≤ 50 nM | 80 to 100% | –
C#Cc1c(F)ccc2cc(O)cc(-c3ncc4c(N5CC6CCC(C5)N6)nc(OC[C@@]56CCCN5C[C@H](F)C6)nc4c3F)c12 [MRTX1133] | – | – | – | specificity for KRAS-G12D mutant cells over wild-type tumor cells (KRAS-G12D mutant cells): more than 1000 times
C#Cc1cccc2cc(O)cc(-c3ncc4c(N5CCC[C@@](C)(O)C5)nc(OCC5(CN6CCN(CC7CCC8(CC7)CCN(C(=O)c7ccc(OC)c(N9CCC(=O)NC9=O)c7)CC8)CC6)CC5)nc4c3F)c12 [Example 29, (R)-1-(5-(9-((4-((1-(((7-(8-ethynyl-3-hydroxynaphthalen-1-yl)-8-fluoro-4-(3-hydroxy-3-methylpiperidin-1-yl)pyrido[4,3-d]pyrimidin-2-yl)oxy)methyl)cyclopropyl)methyl)piperazin-1-yl)methyl)-3-azaspiro[5.5]undecane-3-carbonyl)-2-methoxyphenyl)dihydropyrimidine-2,4(1H,3H)-dione] | ≤ 500 nM | ≤ 50 nM | 80 to 100% | IC50 [2]: 4.46 nM; IC50 [3]: ≤ 50 nM; IC50 [4]: ≤ 50 nM; IC50 [5]: ≤ 50 nM
